Source: patent US7989495B2, “Compositions and methods for inhibiting NF-κB mediated tumorigenicity and adhesion dependent survival of cancer cells” (University of Utah Research Foundation, priority 2002, dated 2011)
Where “and” joins values, the source holds several entries; their conditions need not be identical. Identical values can stand only once.

How the values were obtained:
Format in all cases: in vivo
[1] = system: HCT-116 cells injected intraperitoneally; test: Intraabdominal seeding (metastasis) model in athymic mice; details: HCT-116 intraperitoneal; pretreated, then twice weekly; after 21 days
From the text: (§1) FIGS. 6A, B, C show tumor implants of the liver of three athymic mice 21 days after receiving intraperitoneal injections of HT-29 cells. The mice were pretreated and treated for a total of 21 days with DMSO twice weekly. […] The mouse was pretreated and treated for a total of 21 days with DMSO twice weekly. […] This section was obtained from the tumor implant from the mouse in FIG. 6A. […] FIG. 6G, (liver), FIG. 6H, (abdominal wall), and FIG. 6I, (intestinal) show tumor implants in three athymic mice 21 days after receiving intraabdominal injections of HCT-116 cells. All of the mice were treated with 5 mg/kg of BAY 11-7085 twice weekly.
(§2) HT-29 and HCT-116 cells were harvested in 0.25% trypsin-PBS-EDTA, washed once in media and PBS, and resuspended in PBS at 1 million cells per 200 μL. One million cells were injected either subcutaneously in the backs or intraperitoneally in 5 week old female nu/nu athymic mice (Charles River Labs). For the mice with subcutaneous tumors, the tumors were allowed to establish themselves for 10 days after which they were randomized to BAY 11-7085 or DMSO. For the mice with intraperitoneal tumors, the mice received DMSO or BAY 11-7085 (5 mg/kg) 24 hours before the cancer cells were injected intrapentoneally. All mice received BAY 11-7085 (5 mg/kg) or an equal volume of DMSO (˜200 μL) twice weekly for 21-32 days. Subcutaneous tumor sizes were determined by measuring the length and width with calipers. These studies were approved by the U. of Utah Institutional Review Board and Institutional Animal Care and Use Committee and performed in the Animal Resource Center. Mice were euthanized when they experienced a greater than 10% loss in body weight or if they appeared ill. […]
(§3) Since BAY 11-7085 induced apoptosis of readherent HT-29 cells, an in vivo model was used to test the ability of the drug to prevent metastasis by seeding of intraabdominal tissue with colon cancer cells. […] Seeding results from the transient suspension of cancer cells, through a loss of adhesion either naturally ro because of surgical displacement, followed by readhesion to other tissues. […]

[2] = system: HT-29 cells injected intraperitoneally; test: as above; details: HT-29 intraperitoneal; pretreated 24 hours earlier, then twice weekly, 21 days; n = 6
From the text: as §1, §2, §3

HCT-116 xenografts = test: Subcutaneous colon cancer xenograft in athymic mice
Experimental: DLD-1, HCT-116, and HT-29 cells were cultured for 6 days in soft agar in the presence of DMSO (control), 10 μM BAY 11-7082, or 10 μM BAY 11-7085. The data points represent the means of colony counts per field (20×) performed in 5 different regions of the culture dishes. The data shown represent a typical result of two separate experiments. FIGS. 2B,C, show athymic mice received subcutaneous injections of HT-29 (B) or HCT-116 (C) cells, followed by […] of BAY 11-7085 (dark bars) or DMSO (white bars) intraperitoneally twice weekly. The bars represent the 25-75% ranges of the tumor volumes and the horizontal lines in the bars are the medians. Using the Kruskal-Wallace statistical test to compare the median tumor volumes between BAY 11-7085 and DMSO yielded a p-value of 0.005 for HT-29 cells but >0.05 for HCT-116 cells.
HT-29 and HCT-116 cells were harvested in 0.25% trypsin-PBS-EDTA, washed once in media and PBS, and resuspended in PBS at 1 million cells per 200 μL. One million cells were injected either subcutaneously in the backs or intraperitoneally in 5 week old female nu/nu athymic mice (Charles River Labs). For the mice with subcutaneous tumors, the tumors were allowed to establish themselves for 10 days after which they were randomized to BAY 11-7085 or DMSO. For the mice with intraperitoneal tumors, the mice received DMSO or BAY 11-7085 (5 mg/kg) 24 hours before the cancer cells were injected intrapentoneally. All mice received BAY 11-7085 (5 mg/kg) or an equal volume of DMSO (˜200 μL) twice weekly for 21-32 days. Subcutaneous tumor sizes were determined by measuring the length and width with calipers. These studies were approved by the U. of Utah Institutional Review Board and Institutional Animal Care and Use Committee and performed in the Animal Resource Center. Mice were euthanized when they experienced a greater than 10% loss in body weight or if they appeared ill. Post-mortem examinations included sectioning of kidney, lung, and liver tissues which were stained with hematoxylin and eosin followed by examination for tissue toxicity/damage by an experienced mouse pathologist (E.J.E.) who was blinded to therapy.
(Wang et al., 1999) However, BAY 11-7082 or BAY 11-7085 alone inhibit colon cancer xenograft growth in athymic mice. HC-116, and HT-29 cell lines were used to generate subcutaneous tumors in athymic female mice. The mice were subsequently randomized to be treated with vehicle (DMSO) alone or BAY 11-7085 1 mg/kg twice weekly for 28 days.

CC(C)(C)c1ccc(S(=O)(=O)/C=C/C#N)cc1 [BAY 11-7085, (2E)-3-[4-(tertiarybutylphenyl)sulfonyl]-2-propenenitrile]
metastases of parietal and visceral peritoneum [1]: clear evidence of metastases | Liver Metastases (mice with metastases / mice) [2]: none of the 6 and 0/6 | Peritoneal Metastases (mice with metastases / mice) [2]: 2 of 6 and 2/6 | p-value, Kruskal-Wallace test of median tumor volumes vs DMSO (HCT-116 xenografts; HCT-116, intraperitoneally twice weekly): > 0.05 | tumor volumes, treatment group compared with control group (HCT-116 xenografts; HCT-116 subcutaneous tumors, 1 mg/kg twice weekly for 28 days, vs DMSO): no statistically significant overall difference in the tumor volumes
